Test results from patent US6518243B1, “Desleucyl glycopeptide antibiotics and methods of making same” (Trustees of Princeton University, priority 1999, dated 2003).

Tested on: E. faecalis (CL 4877)
Assay: Zone of inhibition screen, 96 well agar array format
Type: cell-based
Design: scale not given here
Conditions: zone of inhibition relative to 1 mg/ml stock solution of p-chlorobiphenylvancomycin
Method: The antibacterial activity of each of the compounds against the bacterial strains E. faceium (ATCC 49624), S. epidermidis (ATCC 12228), S. aureus (ATCC 29213), E. faecalis (CL 4877) and E. faecalis (ATCC 292121) was tested. Each of the compounds was screened in a 96 will agar array format.

| Compound | zone score, E. faecalis CL 4877 |
| --- | --- |
| CC1OC(OC2C(Oc3c4cc5cc3Oc3ccc(cc3Cl)C(O)C3NC(=O)C(NC(=O)C5NC(=O)C(CC(N)=O)NC(=O)C(NC(=O)c5nccnc5N)C(O)c5ccc(c(Cl)c5)O4)c4ccc(O)c(c4)-c4c(O)cc(O)cc4C(C(=O)O)NC3=O)OC(CO)C(O)C2O)CC(C)(NCc2ccc(-c3ccc(Cl)cc3)cc2)C1O (stereo not drawn) [Compound 105] | 2 |
| CC(=O)NC(CCCNC(=N)N)C(=O)NC1C(=O)NC(CC(N)=O)C(=O)NC2C(=O)NC3C(=O)NC(C(=O)NC(C(=O)O)c4cc(O)cc(O)c4-c4cc3ccc4O)C(O)c3ccc(c(Cl)c3)Oc3cc2cc(c3OC2OC(CO)C(O)C(O)C2OC2CC(C)(NCc3ccc(-c4ccc(Cl)cc4)cc3)C(O)C(C)O2)Oc2ccc(cc2Cl)C1O (stereo not drawn) [Compound 111] | 2 |
| CC(=O)NC(CC(N)=O)C(=O)NC1C(=O)NC(CC(N)=O)C(=O)NC2C(=O)NC3C(=O)NC(C(=O)NC(C(=O)O)c4cc(O)cc(O)c4-c4cc3ccc4O)C(O)c3ccc(c(Cl)c3)Oc3cc2cc(c3OC2OC(CO)C(O)C(O)C2OC2CC(C)(NCc3ccc(-c4ccc(Cl)cc4)cc3)C(O)C(C)O2)Oc2ccc(cc2Cl)C1O (stereo not drawn) [Compound 113] | 2 |
| CC(=O)NC(C(=O)NC1C(=O)NC(CC(N)=O)C(=O)NC2C(=O)NC3C(=O)NC(C(=O)NC(C(=O)O)c4cc(O)cc(O)c4-c4cc3ccc4O)C(O)c3ccc(c(Cl)c3)Oc3cc2cc(c3OC2OC(CO)C(O)C(O)C2OC2CC(C)(NCc3ccc(-c4ccc(Cl)cc4)cc3)C(O)C(C)O2)Oc2ccc(cc2Cl)C1O)C(C)O (stereo not drawn) [Compound 125] | 2 |
| CC1OC(OC2C(Oc3c4cc5cc3Oc3ccc(cc3Cl)C(O)C3NC(=O)C(NC(=O)C5NC(=O)C(CC(N)=O)NC(=O)C(NC(=O)C(NC(N)=O)NC(N)=O)C(O)c5ccc(c(Cl)c5)O4)c4ccc(O)c(c4)-c4c(O)cc(O)cc4C(C(=O)O)NC3=O)OC(CO)C(O)C2O)CC(C)(NCc2ccc(-c3ccc(Cl)cc3)cc2)C1O (stereo not drawn) [Compound 126] | 2 |
| CC1OC(OC2C(Oc3c4cc5cc3Oc3ccc(cc3Cl)C(O)C(NC(=O)C(O)C(O)C(O)CO)C(=O)NC(CC(N)=O)C(=O)NC5C(=O)NC3C(=O)NC(C(=O)NC(C(=O)O)c5cc(O)cc(O)c5-c5cc3ccc5O)C(O)c3ccc(c(Cl)c3)O4)OC(CO)C(O)C2O)CC(C)(NCc2ccc(-c3ccc(Cl)cc3)cc2)C1O (stereo not drawn) [Compound 127] | 2 |
| CC1OC(OC2C(Oc3c4cc5cc3Oc3ccc(cc3Cl)C(O)C3NC(=O)C(NC(=O)C5NC(=O)C(CC(N)=O)NC(=O)C(NC(=O)C(CC(N)=O)NC(=O)OC(C)(C)C)C(O)c5ccc(c(Cl)c5)O4)c4ccc(O)c(c4)-c4c(O)cc(O)cc4C(C(=O)O)NC3=O)OC(CO)C(O)C2O)CC(C)(NCc2ccc(-c3ccc(Cl)cc3)cc2)C1O (stereo not drawn) [Compound 133] | 2 |
| CC1OC(OC2C(Oc3c4cc5cc3Oc3ccc(cc3Cl)C(O)C3NC(=O)C(NC(=O)C5NC(=O)C(CC(N)=O)NC(=O)C(NC(=O)C(CCCNC(=N)N)NC(=O)CNC(=O)OC(C)(C)C)C(O)c5ccc(c(Cl)c5)O4)c4ccc(O)c(c4)-c4c(O)cc(O)cc4C(C(=O)O)NC3=O)OC(CO)C(O)C2O)CC(C)(NCc2ccc(-c3ccc(Cl)cc3)cc2)C1O (stereo not drawn) [Compound 138] | 2 |
| CC1OC(OC2C(Oc3c4cc5cc3Oc3ccc(cc3Cl)C(O)C3NC(=O)C(NC(=O)C5NC(=O)C(CC(N)=O)NC(=O)C(NC(=O)CNC(=O)CNC(=O)OC(C)(C)C)C(O)c5ccc(c(Cl)c5)O4)c4ccc(O)c(c4)-c4c(O)cc(O)cc4C(C(=O)O)NC3=O)OC(CO)C(O)C2O)CC(C)(NCc2ccc(-c3ccc(Cl)cc3)cc2)C1O (stereo not drawn) [Compound 140] | 2 |
| CC1OC(OC2C(Oc3c4cc5cc3Oc3ccc(cc3Cl)C(O)C3NC(=O)C(NC(=O)C5NC(=O)C(CC(N)=O)NC(=O)C(NC(=O)CC5OCC6CN7CC8C9=CC(=O)C(=O)C([N+](=O)[O-])=C9NC8C5C6CC7C)C(O)c5ccc(c(Cl)c5)O4)c4ccc(O)c(c4)-c4c(O)cc(O)cc4C(C(=O)O)NC3=O)OC(CO)C(O)C2O)CC(C)(NCc2ccc(-c3ccc(Cl)cc3)cc2)C1O (stereo not drawn) [Compound 144] | 2 |
| CC1OC(OC2C(Oc3c4cc5cc3Oc3ccc(cc3Cl)C(O)C3NC(=O)C(NC(=O)C5NC(=O)C(CC(N)=O)NC(=O)C(NC(=O)CN(C)C(=N)N)C(O)c5ccc(c(Cl)c5)O4)c4ccc(O)c(c4)-c4c(O)cc(O)cc4C(C(=O)O)NC3=O)OC(CO)C(O)C2O)CC(C)(NCc2ccc(-c3ccc(Cl)cc3)cc2)C1O (stereo not drawn) [Compound 145] | 2 |
| CC1OC(OC2C(Oc3c4cc5cc3Oc3ccc(cc3Cl)C(O)C(NC(=O)C3(O)CC(O)C(O)C(O)C3)C(=O)NC(CC(N)=O)C(=O)NC5C(=O)NC3C(=O)NC(C(=O)NC(C(=O)O)c5cc(O)cc(O)c5-c5cc3ccc5O)C(O)c3ccc(c(Cl)c3)O4)OC(CO)C(O)C2O)CC(C)(NCc2ccc(-c3ccc(Cl)cc3)cc2)C1O (stereo not drawn) [Compound 146] | 2 |
| CC1OC(OC2C(Oc3c4cc5cc3Oc3ccc(cc3Cl)C(O)C(NC(=O)C(O)C3OC(=O)C(O)C3O)C(=O)NC(CC(N)=O)C(=O)NC5C(=O)NC3C(=O)NC(C(=O)NC(C(=O)O)c5cc(O)cc(O)c5-c5cc3ccc5O)C(O)c3ccc(c(Cl)c3)O4)OC(CO)C(O)C2O)CC(C)(NCc2ccc(-c3ccc(Cl)cc3)cc2)C1O (stereo not drawn) [Compound 155] | 2 |
| CC1OC(OC2C(Oc3c4cc5cc3Oc3ccc(cc3Cl)C(O)C3NC(=O)C(NC(=O)C5NC(=O)C(CC(N)=O)NC(=O)C(NC(=O)C=O)C(O)c5ccc(c(Cl)c5)O4)c4ccc(O)c(c4)-c4c(O)cc(O)cc4C(C(=O)O)NC3=O)OC(CO)C(O)C2O)CC(C)(NCc2ccc(-c3ccc(Cl)cc3)cc2)C1O (stereo not drawn) [Compound 159] | 2 |
| CC1OC(OC2C(Oc3c4cc5cc3Oc3ccc(cc3Cl)[C@@H](O)[C@@H](NC(=O)CNC(=O)CNC(=O)CNC(=O)c3ccccc3)C(=O)N[C@@H](CC(N)=O)C(=O)N[C@H]5C(=O)NC3C(=O)N[C@H](C(=O)N[C@@H](C(=O)O)c5cc(O)cc(O)c5-c5cc3ccc5O)[C@H](O)c3ccc(c(Cl)c3)O4)OC(CO)C(O)C2O)CC(C)(NCc2ccc(-c3ccc(Cl)cc3)cc2)C1O (stereo partly drawn) [Compound 161] | 2 |
| CC1OC(OC2C(Oc3c4cc5cc3Oc3ccc(cc3Cl)[C@@H](O)[C@@H](NC(=O)CNC(N)=O)C(=O)N[C@@H](CC(N)=O)C(=O)N[C@H]5C(=O)NC3C(=O)N[C@H](C(=O)N[C@@H](C(=O)O)c5cc(O)cc(O)c5-c5cc3ccc5O)[C@H](O)c3ccc(c(Cl)c3)O4)OC(CO)C(O)C2O)CC(C)(NCc2ccc(-c3ccc(Cl)cc3)cc2)C1O (stereo partly drawn) [Compound 162] | 2 |
| CC1OC(OC2C(Oc3c4cc5cc3Oc3ccc(cc3Cl)[C@@H](O)[C@@H](NC(=O)[C@H](O)CCCNC(=N)N)C(=O)N[C@@H](CC(N)=O)C(=O)N[C@H]5C(=O)NC3C(=O)N[C@H](C(=O)N[C@@H](C(=O)O)c5cc(O)cc(O)c5-c5cc3ccc5O)[C@H](O)c3ccc(c(Cl)c3)O4)OC(CO)C(O)C2O)CC(C)(NCc2ccc(-c3ccc(Cl)cc3)cc2)C1O (stereo partly drawn) [Compound 165] | 2 |
| CC1OC(OC2C(Oc3c4cc5cc3Oc3ccc(cc3Cl)[C@@H](O)[C@@H](NC(=O)[C@H]3CC(=O)NC(=O)N3)C(=O)N[C@@H](CC(N)=O)C(=O)N[C@H]5C(=O)NC3C(=O)N[C@H](C(=O)N[C@@H](C(=O)O)c5cc(O)cc(O)c5-c5cc3ccc5O)[C@H](O)c3ccc(c(Cl)c3)O4)OC(CO)C(O)C2O)CC(C)(NCc2ccc(-c3ccc(Cl)cc3)cc2)C1O (stereo partly drawn) [Compound 168] | 2 |
| CC1OC(OC2C(Oc3c4cc5cc3Oc3ccc(cc3Cl)[C@@H](O)[C@@H](NC(=O)[C@@H]3CCC(=O)N3)C(=O)N[C@@H](CC(N)=O)C(=O)N[C@H]5C(=O)NC3C(=O)N[C@H](C(=O)N[C@@H](C(=O)O)c5cc(O)cc(O)c5-c5cc3ccc5O)[C@H](O)c3ccc(c(Cl)c3)O4)OC(CO)C(O)C2O)CC(C)(NCc2ccc(-c3ccc(Cl)cc3)cc2)C1O (stereo partly drawn) [Compound 169] | 2 |
| CC1OC(OC2C(Oc3c4cc5cc3Oc3ccc(cc3Cl)[C@@H](O)[C@@H](NC(=O)CS(C)(=O)=O)C(=O)N[C@@H](CC(N)=O)C(=O)N[C@H]5C(=O)NC3C(=O)N[C@H](C(=O)N[C@@H](C(=O)O)c5cc(O)cc(O)c5-c5cc3ccc5O)[C@H](O)c3ccc(c(Cl)c3)O4)OC(CO)C(O)C2O)CC(C)(NCc2ccc(-c3ccc(Cl)cc3)cc2)C1O (stereo partly drawn) [Compound 171] | 2 |
| CC(=O)CC(=O)NCC(=O)N[C@H]1C(=O)N[C@@H](CC(N)=O)C(=O)N[C@H]2C(=O)NC3C(=O)N[C@H](C(=O)N[C@@H](C(=O)O)c4cc(O)cc(O)c4-c4cc3ccc4O)[C@H](O)c3ccc(c(Cl)c3)Oc3cc2cc(c3OC2OC(CO)C(O)C(O)C2OC2CC(C)(NCc3ccc(-c4ccc(Cl)cc4)cc3)C(O)C(C)O2)Oc2ccc(cc2Cl)[C@H]1O (stereo partly drawn) [Compound 172] | 2 |
| CC(=O)NCC(=O)N[C@H]1C(=O)N[C@@H](CC(N)=O)C(=O)N[C@H]2C(=O)NC3C(=O)N[C@H](C(=O)N[C@@H](C(=O)O)c4cc(O)cc(O)c4-c4cc3ccc4O)[C@H](O)c3ccc(c(Cl)c3)Oc3cc2cc(c3OC2OC(CO)C(O)C(O)C2OC2CC(C)(NCc3ccc(-c4ccc(Cl)cc4)cc3)C(O)C(C)O2)Oc2ccc(cc2Cl)[C@H]1O (stereo partly drawn) [Compound 179] | 2 |
| CC(=O)NC(CCCNC(=N)N)C(=O)NC1C(=O)NC(CC(N)=O)C(=O)NC2C(=O)NC3C(=O)NC(C(=O)NC(C(=O)O)c4cc(O)cc(O)c4-c4cc3ccc4O)C(O)c3ccc(c(Cl)c3)Oc3cc2cc(c3OC2OC(CO)C(O)C(O)C2OC2CC(C)(NCc3ccc(-c4ccc(Cl)cc4)cc3)C(O)C(C)O2)Oc2ccc(cc2Cl)C1O (stereo not drawn) [Compound 184] | 2 |
| CC1OC(OC2C(Oc3c4cc5cc3Oc3ccc(cc3Cl)C(O)C3NC(=O)C(NC(=O)C5NC(=O)C(CC(N)=O)NC(=O)C(NC(=O)C(Cc5c[nH]cn5)NC(N)=O)C(O)c5ccc(c(Cl)c5)O4)c4ccc(O)c(c4)-c4c(O)cc(O)cc4C(C(=O)O)NC3=O)OC(CO)C(O)C2O)CC(C)(NCc2ccc(-c3ccc(Cl)cc3)cc2)C1O (stereo not drawn) [Compound 192] | 2 |
